Experimental data reported in ChEMBL document CHEMBL1201862, “PubChem BioAssay data set” (2004).
The source made the active and inactive calls.

Experiments:
Trypsin = Trypsin (Sus scrofa, UniProt P00761); assay: trypsin protease activity blockade – biochemical, quenched peptide fluorescence, cherry-pick, selectivity assay for Rce1 protease inhibitor project, dose response (AID 488789)
CAAX prenyl protease 2 [1] = target: CAAX prenyl protease 2 (Homo sapiens, UniProt Q9Y256); assay: inhibition of Ras-converting CAAX protease Rce1 – biochemical, yeast membranes, quenched-peptide fluorescence, cherry-pick, dose response (AID 588849)
CAAX prenyl protease 2 [2] = target: CAAX prenyl protease 2 (Saccharomyces cerevisiae S288c, UniProt Q03530); type: biochemical
[3] = target: T1, Tyrosine-protein phosphatase non-receptor type 7 (Homo sapiens, UniProt P35236); assay: SAR analysis of chemical inhibitors of HePTP using a Fluorescent assay - Set 2. [Related pubchem assays (depositor defined):AID1059, AID1077, AID1661, AID2085, AID521]; type: functional
T1 sequence (P35236 whole entry): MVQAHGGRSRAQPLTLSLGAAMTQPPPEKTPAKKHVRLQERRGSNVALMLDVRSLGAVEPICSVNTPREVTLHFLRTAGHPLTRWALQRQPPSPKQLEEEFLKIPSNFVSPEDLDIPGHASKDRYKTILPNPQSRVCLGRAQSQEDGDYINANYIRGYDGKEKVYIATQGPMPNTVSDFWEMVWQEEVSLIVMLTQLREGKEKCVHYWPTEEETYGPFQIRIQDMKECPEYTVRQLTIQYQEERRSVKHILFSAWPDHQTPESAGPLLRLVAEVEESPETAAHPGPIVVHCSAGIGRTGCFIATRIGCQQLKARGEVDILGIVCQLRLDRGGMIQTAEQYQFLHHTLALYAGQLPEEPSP

[4] = target: Dual specificity protein phosphatase 3 (Homo sapiens, UniProt P51452); assay: SAR VHR1 Fluorescent Assay for In Vitro dose response studies Set 2. [Related pubchem assays (depositor defined):AID1654, AID1661, AID1878]; type: functional
Coagulation factor XII [5] = target: T2, Coagulation factor XII (Homo sapiens, UniProt P00748); assay: Factor XIIa Dose Response Confirmation from Single Well HTS. [Related pubchem assays (depositor defined):AID701]; type: functional
T2 sequence (P00748 whole entry): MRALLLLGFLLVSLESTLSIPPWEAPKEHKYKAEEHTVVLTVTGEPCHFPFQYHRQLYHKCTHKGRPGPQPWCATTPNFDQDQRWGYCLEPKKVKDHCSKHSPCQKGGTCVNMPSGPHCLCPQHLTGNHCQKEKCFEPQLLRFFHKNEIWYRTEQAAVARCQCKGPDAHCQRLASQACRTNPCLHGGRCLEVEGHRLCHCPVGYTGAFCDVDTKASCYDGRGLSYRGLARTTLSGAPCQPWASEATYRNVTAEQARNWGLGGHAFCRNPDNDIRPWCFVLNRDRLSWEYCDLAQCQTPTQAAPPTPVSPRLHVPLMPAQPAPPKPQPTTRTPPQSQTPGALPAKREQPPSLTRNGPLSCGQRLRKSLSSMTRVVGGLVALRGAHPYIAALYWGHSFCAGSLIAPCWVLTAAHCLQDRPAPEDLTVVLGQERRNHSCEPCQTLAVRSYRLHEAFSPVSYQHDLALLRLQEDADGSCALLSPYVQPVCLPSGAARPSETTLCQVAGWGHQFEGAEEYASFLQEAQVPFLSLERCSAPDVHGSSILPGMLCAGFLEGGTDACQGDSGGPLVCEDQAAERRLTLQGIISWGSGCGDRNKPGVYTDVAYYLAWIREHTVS

Coagulation factor XII [6] = target: T2, Coagulation factor XII; assay: activated coagulation factor XII inhibitor potency, concentration-effect curve, cell-free (AID 716); type: functional

CAAX prenyl protease 2 (Homo sapiens, UniProt Q9Y256), sequence (Q9Y256 whole entry): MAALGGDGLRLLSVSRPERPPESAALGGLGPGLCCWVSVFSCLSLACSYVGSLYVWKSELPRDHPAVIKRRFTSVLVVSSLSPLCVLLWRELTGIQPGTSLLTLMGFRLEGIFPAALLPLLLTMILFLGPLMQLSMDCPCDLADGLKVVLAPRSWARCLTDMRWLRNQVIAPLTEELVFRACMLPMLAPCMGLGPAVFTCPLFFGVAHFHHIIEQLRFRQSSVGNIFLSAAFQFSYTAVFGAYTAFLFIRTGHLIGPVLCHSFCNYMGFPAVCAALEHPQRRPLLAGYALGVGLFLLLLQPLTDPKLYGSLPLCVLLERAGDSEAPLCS
Dual specificity protein phosphatase 3, sequence (P51452 whole entry): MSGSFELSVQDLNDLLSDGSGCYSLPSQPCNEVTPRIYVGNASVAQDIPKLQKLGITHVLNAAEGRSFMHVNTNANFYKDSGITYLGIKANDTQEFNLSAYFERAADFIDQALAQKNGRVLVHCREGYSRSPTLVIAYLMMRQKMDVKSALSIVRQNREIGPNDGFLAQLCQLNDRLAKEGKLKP
CAAX prenyl protease 2 (Saccharomyces cerevisiae S288c, UniProt Q03530), sequence (Q03530 whole entry): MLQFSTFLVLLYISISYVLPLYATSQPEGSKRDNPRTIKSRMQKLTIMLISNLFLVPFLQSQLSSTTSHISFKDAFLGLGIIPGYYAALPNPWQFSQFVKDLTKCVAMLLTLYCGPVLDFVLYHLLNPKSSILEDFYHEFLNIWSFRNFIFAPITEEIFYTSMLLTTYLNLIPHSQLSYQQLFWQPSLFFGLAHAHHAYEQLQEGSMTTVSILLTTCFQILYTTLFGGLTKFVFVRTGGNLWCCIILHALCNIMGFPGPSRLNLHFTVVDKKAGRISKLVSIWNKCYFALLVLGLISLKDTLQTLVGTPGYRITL
Trypsin, sequence (P00761 whole entry): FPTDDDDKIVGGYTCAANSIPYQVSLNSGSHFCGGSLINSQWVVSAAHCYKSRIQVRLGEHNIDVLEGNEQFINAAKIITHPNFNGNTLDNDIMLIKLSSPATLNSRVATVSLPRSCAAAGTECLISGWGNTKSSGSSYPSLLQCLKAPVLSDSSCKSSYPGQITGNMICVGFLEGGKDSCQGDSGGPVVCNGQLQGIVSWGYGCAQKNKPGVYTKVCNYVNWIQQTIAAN

Cc1csc(NC(=O)c2ccccc2O)n1
AC50 (Trypsin): > 100 µM (inactive)
AC50 (CAAX prenyl protease 2 [1]): 19.3 µM (active)

CS(=O)(=O)Nc1ccccc1C(=O)NC1CC2CCC1C2 (configuration not stated)
AC50 (CAAX prenyl protease 2 [2]): 3.03 µM (active)

Cc1ccc(-n2c(N)c(C(=O)N3CCOCC3)sc2=S)cc1
IC50 [3]: > 100 µM (inactive)
IC50 [4]: > 100 µM (inactive)

O=C(Oc1nsnc1N1CCOCC1)c1ccccc1
IC50 (Coagulation factor XII [5]): 4.38 µM (active)

Cc1nnc(NC(=O)C2CCN(c3cnccn3)CC2)s1
IC50 (Coagulation factor XII [6]): > 50 µM (inactive)
